Results taken from ChEMBL document CHEMBL2169779, “Mitigating heterocycle metabolism in drug discovery” (J Med Chem, 2012).

Tests used:
[1] = Drug metabolism in rat liver microsomes at 10 uM; type: ADME, Microsome; details: read-out: Drug metabolism
[2] = Plasma clearance in Sprague-Dawley rat at 1 mg/kg, iv; type: ADME, organism-based; design: dose 1 mg/kg, route intravenous
[3] = Half life in Sprague-Dawley rat at 1 mg/kg, iv; type: ADME, organism-based; design: dose 1 mg/kg, route intravenous; details: in vivo
[4] = Oral bioavailability in Sprague-Dawley rat at 5 mg/kg; type: ADME, organism-based; details: in vivo
[5] = Volume of distribution at steady state in Sprague-Dawley rat at 1 mg/kg, iv; type: ADME, organism-based; design: dose 1 mg/kg, route intravenous; details: in vivo, read-out: Vdss
[6] = molecular target: Metabotropic glutamate receptor 5 (Homo sapiens, UniProt P41594); experiment: Antagonist activity at mGlu5 receptor; type: functional
Sequence of Metabotropic glutamate receptor 5 (P41594 whole entry): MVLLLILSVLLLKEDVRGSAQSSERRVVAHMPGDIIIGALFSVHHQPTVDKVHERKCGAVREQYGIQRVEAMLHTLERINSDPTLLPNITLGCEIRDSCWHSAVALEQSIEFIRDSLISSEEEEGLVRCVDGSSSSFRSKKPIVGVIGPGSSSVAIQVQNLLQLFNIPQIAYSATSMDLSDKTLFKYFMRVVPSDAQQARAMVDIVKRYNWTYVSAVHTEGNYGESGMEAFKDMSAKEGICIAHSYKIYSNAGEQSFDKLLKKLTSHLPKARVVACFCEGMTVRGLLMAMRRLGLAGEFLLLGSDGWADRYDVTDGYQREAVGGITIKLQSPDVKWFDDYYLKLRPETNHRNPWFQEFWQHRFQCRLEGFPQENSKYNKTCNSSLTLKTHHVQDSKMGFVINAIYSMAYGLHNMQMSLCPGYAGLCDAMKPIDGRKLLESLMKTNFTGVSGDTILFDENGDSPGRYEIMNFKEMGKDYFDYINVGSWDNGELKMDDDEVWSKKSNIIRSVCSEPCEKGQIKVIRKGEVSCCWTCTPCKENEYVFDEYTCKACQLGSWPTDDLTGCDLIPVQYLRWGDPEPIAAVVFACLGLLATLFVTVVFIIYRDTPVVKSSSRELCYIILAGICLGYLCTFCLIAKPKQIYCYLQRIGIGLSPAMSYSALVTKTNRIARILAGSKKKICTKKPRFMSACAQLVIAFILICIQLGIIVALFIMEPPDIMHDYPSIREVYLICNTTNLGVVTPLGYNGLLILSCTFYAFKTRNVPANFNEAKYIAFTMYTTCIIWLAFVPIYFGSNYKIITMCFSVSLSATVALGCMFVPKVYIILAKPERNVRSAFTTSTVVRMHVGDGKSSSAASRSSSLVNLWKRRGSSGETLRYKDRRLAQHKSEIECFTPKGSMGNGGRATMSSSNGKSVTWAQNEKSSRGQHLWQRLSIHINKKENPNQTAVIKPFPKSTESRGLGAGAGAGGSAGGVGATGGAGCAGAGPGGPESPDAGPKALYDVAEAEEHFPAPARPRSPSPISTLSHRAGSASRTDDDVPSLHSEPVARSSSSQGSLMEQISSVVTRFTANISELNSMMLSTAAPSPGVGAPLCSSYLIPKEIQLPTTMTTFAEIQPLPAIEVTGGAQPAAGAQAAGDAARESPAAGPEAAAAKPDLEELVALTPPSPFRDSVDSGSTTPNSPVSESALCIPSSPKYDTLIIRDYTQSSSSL

[7] = Intrinsic clearance in Wistar rat; type: ADME, organism-based; details: in vivo
[8] = in vivo; details: Wistar, rat
[9] = Volume of distribution at steady state in Wistar rat; type: ADME, organism-based; details: in vivo, read-out: Vdss
[10] = in vivo; details: Wistar, rat, po
Description: Oral bioavailability in Wistar rat

[11] = physchem
Description: Dissociation constant, pKa of the compound

Cc1cn([C@H](C)C2CC2)c(=O)c(Nc2c(Cl)cc(OC(F)F)cc2Cl)n1
metabolised at 10 µM [1]: 7%

O=C(Nc1nc(-c2ccc(F)c(C(F)(F)F)c2)ns1)c1cnc(N2CCC(C(=O)O)CC2)c(Cl)c1
clearance [2]: 1.49 mL/min/kg
half-life [3]: 1.09 h
bioavailability [4]: 73.5%
Vd [5]: 0.22 L/kg

O=C(Nc1nc(-c2ccc(F)c(C(F)(F)F)c2)c(F)s1)c1cnc(N2CCC(C(=O)O)CC2)c(Cl)c1
clearance [2]: 2.79 mL/min/kg
half-life [3]: 1.67 h
bioavailability [4]: 73%
Vd [5]: 0.34 L/kg

O=C(Nc1nc(-c2ccc(F)c(C(F)(F)F)c2)cs1)c1cnc(N2CCC(C(=O)O)CC2)c(Cl)c1
clearance [2]: 6.89 mL/min/kg
half-life [3]: 1.34 h
bioavailability [4]: 66.8%
Vd [5]: 0.83 L/kg

Cc1nc(C(=O)Nc2ccc(O)c(C)n2)c(Nc2cccnc2)s1
Ki [6]: 111 nM

Cc1cccc(NC(=O)c2nc(C)sc2Nc2cccnc2)n1
Ki [6]: 9 nM

Cc1nc(C(=O)Nc2cccc(CO)n2)c(Nc2cccnc2)s1
Ki [6]: 67 nM

Cc1cc(NC(=O)c2nc(C)sc2Nc2cccnc2)ccn1
Ki [6]: 44 nM

Cc1cc(NC(=O)c2nc(C)sc2Nc2cncnc2)ccn1
Ki [6]: 81 nM

Cc1nc(C(=O)Nc2ccc(F)cn2)c(Nc2cccnc2)s1
Ki [6]: 13 nM

Cc1nc(C(=O)Nc2ccc(F)cn2)c(Nc2cncnc2)s1
Ki [6]: 31 nM

C[C@@H](C1CC1)n1cc(Br)nc(Nc2c(Cl)cc(OC(F)F)cc2Cl)c1=O
metabolised at 10 µM [1]: 4%

CC(C)N1CCC(Oc2ccc3[nH]c(C(=O)N4CCOCC4)cc3c2)CC1
CLint scaled [7]: 50 mL/min/kg
half-life [8]: 1.1 h
Vd [9]: 3.5 L/kg

CC(C)N1CCC(Oc2ccc3[nH]c(C(=O)N4CCC(F)(F)CC4)cc3c2)CC1
bioavailability [10]: 100%
CLint scaled [7]: 18 mL/min/kg
Vd [9]: 6 L/kg

C[C@H](C1CC1)n1cc(C#N)nc(Nc2c(Cl)cc(OC(F)F)cc2Cl)c1=O
metabolised at 10 µM [1]: 1%

C[C@@H](C1CC1)n1cc(Cl)nc(Nc2c(Cl)cc(OC(F)F)cc2Cl)c1=O
metabolised at 10 µM [1]: 20%

C1CCCNCC1 [AZEPANE]
pKa [11]: 10.9

C1CNC1 [AZETIDINE]
pKa [11]: 10.7

c1cnsc1 [ISOTHIAZOLE]
pKa [11]: -0.51

c1cocn1 [OXAZOLE]
pKa [11]: 0.8

c1cnccn1 [PYRAZINE]
pKa [11]: 0.4

c1cn[nH]c1 [PYRAZOLE]
pKa [11]: 2.52

c1ccnnc1 [PYRIDAZINE]
pKa [11]: 2.3
